Key:
Experiment in all cases: Kinase panel activity
Assay type in all cases: biochemical
Conditions in all cases: 0.1 μM, ATP Km
Ab1(Q252H)(h) = Ab1(Q252H)(h) (Homo sapiens, UniProt P00519, Q252H)
Protocol: (§1) The effect of NTW-3475 on kinase activity was tested for a wide range of kinases and is shown in Table 2: Summary Sheet, Activity % ATP Concentration: Km

Arg(m) = Arg(m) (Mus musculus, UniProt Q4JIM5)
Protocol: as §1

BrSK2(h) = BrSK2(h) (Homo sapiens, UniProt Q8IWQ3)
Protocol: as §1

CDK7/cyclinH/MAT1(h) = CDK7/cyclinH/MAT1(h) (Homo sapiens, UniProt P50613)
Protocol: as §1

CaMKI(h) = CaMKI(h) (Homo sapiens, UniProt Q14012)
Protocol: as §1

CaMKIIγ(h) = CaMKIIγ(h) (Homo sapiens, UniProt Q13555)
Protocol: as §1

CaMKIδ(h) = CaMKIδ(h) (Homo sapiens, UniProt Q8IU85)
Protocol: as §1

DCAMKL2(h) = DCAMKL2(h) (Homo sapiens, UniProt Q8N568)
Protocol: as §1

DMPK(h) = DMPK(h) (Homo sapiens, UniProt Q09013)
Protocol: as §1

DRAK1(h) = target: T1, DRAK1(h) (Homo sapiens, UniProt Q9UEE5)
T1 construct: purchased Millipore (KinaseProfiler service)
Protocol: as §1

EGFR(h) = target: T2, EGFR(h) (Homo sapiens, UniProt P00533)
T2 construct: purchased Millipore (KinaseProfiler service)
Protocol: as §1

EphA7(h) = target: T3, EphA7(h) (Homo sapiens, UniProt Q15375)
T3 construct: purchased Millipore (KinaseProfiler service)
Protocol: as §1

EphB3(h) = target: T4, EphB3(h) (Homo sapiens, UniProt P54753)
T4 construct: purchased Millipore (KinaseProfiler service)
Protocol: as §1

FGFR2(N549H)(h) = FGFR2(N549H)(h) (Homo sapiens, UniProt P21802, N549H)
FGFR2(N549H)(h), sequence (P21802 22-821 N549H): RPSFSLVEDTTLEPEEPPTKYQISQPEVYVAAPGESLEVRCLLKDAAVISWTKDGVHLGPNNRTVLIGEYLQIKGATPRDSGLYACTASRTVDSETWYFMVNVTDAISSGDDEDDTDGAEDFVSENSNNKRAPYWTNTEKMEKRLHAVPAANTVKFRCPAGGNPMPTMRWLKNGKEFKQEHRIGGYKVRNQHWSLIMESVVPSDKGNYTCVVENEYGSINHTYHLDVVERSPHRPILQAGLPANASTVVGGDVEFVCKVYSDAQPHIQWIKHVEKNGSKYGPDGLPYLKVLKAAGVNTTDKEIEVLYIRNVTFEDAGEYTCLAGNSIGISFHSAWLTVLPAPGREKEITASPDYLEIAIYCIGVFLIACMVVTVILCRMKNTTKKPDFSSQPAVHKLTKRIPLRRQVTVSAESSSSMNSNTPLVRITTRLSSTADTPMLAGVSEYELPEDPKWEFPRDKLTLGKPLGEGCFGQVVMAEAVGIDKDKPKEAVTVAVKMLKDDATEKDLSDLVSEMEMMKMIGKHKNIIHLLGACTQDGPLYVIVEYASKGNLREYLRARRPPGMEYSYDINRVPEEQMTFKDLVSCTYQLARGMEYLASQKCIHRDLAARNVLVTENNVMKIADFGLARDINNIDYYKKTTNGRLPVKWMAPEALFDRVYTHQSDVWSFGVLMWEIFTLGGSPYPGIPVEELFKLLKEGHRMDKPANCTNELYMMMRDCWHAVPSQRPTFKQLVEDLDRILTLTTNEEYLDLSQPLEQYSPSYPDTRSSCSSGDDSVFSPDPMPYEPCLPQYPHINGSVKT
Protocol: as §1

Fms(Y969C)(h) = Fms(Y969C)(h) (Homo sapiens, UniProt P07333, Y969C)
Protocol: as §1

GSK3α(h) = GSK3α(h) (Homo sapiens, UniProt P49840)
Protocol: as §1

IGF-1R(h) = IGF-1R(h) (Homo sapiens, UniProt P08069)
IGF-1R(h), sequence (P08069 31-1367): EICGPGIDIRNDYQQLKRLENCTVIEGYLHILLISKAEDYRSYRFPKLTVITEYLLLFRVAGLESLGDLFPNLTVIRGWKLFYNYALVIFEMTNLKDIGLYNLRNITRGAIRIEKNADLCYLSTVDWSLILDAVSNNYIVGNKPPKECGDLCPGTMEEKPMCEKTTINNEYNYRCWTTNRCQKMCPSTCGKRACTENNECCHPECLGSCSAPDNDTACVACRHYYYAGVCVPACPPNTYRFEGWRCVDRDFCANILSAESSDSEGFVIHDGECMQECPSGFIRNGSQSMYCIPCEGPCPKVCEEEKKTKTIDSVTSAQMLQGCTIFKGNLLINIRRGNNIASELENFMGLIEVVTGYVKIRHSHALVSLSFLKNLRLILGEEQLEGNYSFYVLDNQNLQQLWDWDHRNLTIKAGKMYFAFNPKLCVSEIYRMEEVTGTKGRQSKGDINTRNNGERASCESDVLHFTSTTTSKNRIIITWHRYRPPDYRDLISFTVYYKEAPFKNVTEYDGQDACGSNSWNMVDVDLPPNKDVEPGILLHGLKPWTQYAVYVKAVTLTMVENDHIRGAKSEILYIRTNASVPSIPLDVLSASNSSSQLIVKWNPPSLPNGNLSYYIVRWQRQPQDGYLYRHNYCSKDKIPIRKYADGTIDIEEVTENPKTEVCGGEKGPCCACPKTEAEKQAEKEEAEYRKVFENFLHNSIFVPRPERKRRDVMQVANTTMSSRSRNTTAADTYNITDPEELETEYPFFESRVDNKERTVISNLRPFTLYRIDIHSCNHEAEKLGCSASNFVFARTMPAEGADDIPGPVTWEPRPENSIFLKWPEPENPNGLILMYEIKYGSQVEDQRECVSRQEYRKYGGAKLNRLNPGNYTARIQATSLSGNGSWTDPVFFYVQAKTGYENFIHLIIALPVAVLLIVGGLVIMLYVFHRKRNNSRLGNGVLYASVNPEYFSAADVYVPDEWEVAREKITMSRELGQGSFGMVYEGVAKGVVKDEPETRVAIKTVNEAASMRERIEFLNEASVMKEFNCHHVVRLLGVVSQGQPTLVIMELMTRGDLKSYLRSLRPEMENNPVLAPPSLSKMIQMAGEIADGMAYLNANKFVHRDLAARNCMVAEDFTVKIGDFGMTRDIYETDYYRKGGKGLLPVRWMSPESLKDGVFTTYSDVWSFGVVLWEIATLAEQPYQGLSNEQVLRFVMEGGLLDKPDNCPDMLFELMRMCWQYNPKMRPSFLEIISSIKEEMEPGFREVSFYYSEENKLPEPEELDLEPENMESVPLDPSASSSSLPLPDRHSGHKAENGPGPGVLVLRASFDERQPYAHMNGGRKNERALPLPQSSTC
Protocol: as §1

IRAK1(h) = IRAK1(h) (Homo sapiens, UniProt P51617)
IRAK1(h), sequence (P51617 whole entry): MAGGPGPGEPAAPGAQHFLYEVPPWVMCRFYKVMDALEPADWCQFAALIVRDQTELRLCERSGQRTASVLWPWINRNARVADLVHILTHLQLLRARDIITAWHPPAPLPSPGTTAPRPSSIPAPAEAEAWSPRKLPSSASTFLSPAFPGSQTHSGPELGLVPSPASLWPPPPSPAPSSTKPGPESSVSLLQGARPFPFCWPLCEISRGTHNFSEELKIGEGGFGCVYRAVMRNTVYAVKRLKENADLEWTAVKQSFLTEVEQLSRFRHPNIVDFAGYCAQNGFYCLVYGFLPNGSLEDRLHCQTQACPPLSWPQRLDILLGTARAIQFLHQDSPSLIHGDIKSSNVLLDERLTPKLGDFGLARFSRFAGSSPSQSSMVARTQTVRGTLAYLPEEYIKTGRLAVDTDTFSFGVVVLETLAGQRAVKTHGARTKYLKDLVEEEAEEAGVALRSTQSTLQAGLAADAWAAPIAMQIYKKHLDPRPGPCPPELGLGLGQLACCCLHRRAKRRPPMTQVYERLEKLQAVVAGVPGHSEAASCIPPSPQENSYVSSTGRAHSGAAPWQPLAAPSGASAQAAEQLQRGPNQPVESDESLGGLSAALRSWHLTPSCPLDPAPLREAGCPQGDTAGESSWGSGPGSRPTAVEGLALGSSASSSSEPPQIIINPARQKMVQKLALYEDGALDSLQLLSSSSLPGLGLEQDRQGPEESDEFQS
Protocol: as §1

MAPK2(h) = MAPK2(h) (Homo sapiens, UniProt P28482)
Protocol: as §1

MEK1(h) = target: T5, MEK1(h) (Homo sapiens, UniProt Q02750)
T5 construct: purchased Millipore (KinaseProfiler service)
Protocol: as §1

NEK11(h) = NEK11(h) (Homo sapiens, UniProt Q8NG66)
Protocol: as §1

P1k1(h) = P1k1(h) (Homo sapiens, UniProt P53350)
Protocol: as §1

PAK6(h) = PAK6(h) (Homo sapiens, UniProt Q9NQU5)
Protocol: as §1

PDGFRβ(h) = PDGFRβ(h) (Homo sapiens, UniProt P09619)
Protocol: as §1

PKC ? (h) = PKC ? (h) (Homo sapiens, UniProt Q02156)
Protocol: as §1

PKCβ1(h) = PKCβ1(h) (Homo sapiens, UniProt P05771)
Protocol: as §1

PKCθ(h) = PKCθ(h) (Homo sapiens, UniProt Q04759)
Protocol: as §1

PKCι(h) = PKCι(h) (Homo sapiens, UniProt P41743)
PKCι(h), sequence (P41743 whole entry): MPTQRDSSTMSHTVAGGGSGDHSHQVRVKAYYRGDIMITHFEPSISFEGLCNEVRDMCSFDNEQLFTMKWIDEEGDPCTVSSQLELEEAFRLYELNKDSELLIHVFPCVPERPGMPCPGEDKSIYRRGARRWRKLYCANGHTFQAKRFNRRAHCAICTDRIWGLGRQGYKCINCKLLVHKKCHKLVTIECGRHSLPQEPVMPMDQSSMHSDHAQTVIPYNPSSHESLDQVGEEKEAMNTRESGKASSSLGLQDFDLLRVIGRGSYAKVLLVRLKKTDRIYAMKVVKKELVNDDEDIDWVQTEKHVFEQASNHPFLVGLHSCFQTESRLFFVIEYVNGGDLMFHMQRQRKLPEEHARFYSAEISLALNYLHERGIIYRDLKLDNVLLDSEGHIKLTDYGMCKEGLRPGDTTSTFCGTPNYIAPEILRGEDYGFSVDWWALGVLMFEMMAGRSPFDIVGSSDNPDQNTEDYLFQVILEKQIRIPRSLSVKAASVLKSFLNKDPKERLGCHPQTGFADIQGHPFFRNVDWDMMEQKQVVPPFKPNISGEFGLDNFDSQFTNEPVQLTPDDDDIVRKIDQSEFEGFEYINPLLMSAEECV
Protocol: as §1

Pim-1(h) = Pim-1(h) (Homo sapiens, UniProt P11309)
Protocol: as §1

Rsk4(h) = target: T6, Rsk4(h) (Homo sapiens, UniProt Q9UK32)
T6 construct: purchased Millipore (KinaseProfiler service)
T6 sequence (Q9UK32 whole entry): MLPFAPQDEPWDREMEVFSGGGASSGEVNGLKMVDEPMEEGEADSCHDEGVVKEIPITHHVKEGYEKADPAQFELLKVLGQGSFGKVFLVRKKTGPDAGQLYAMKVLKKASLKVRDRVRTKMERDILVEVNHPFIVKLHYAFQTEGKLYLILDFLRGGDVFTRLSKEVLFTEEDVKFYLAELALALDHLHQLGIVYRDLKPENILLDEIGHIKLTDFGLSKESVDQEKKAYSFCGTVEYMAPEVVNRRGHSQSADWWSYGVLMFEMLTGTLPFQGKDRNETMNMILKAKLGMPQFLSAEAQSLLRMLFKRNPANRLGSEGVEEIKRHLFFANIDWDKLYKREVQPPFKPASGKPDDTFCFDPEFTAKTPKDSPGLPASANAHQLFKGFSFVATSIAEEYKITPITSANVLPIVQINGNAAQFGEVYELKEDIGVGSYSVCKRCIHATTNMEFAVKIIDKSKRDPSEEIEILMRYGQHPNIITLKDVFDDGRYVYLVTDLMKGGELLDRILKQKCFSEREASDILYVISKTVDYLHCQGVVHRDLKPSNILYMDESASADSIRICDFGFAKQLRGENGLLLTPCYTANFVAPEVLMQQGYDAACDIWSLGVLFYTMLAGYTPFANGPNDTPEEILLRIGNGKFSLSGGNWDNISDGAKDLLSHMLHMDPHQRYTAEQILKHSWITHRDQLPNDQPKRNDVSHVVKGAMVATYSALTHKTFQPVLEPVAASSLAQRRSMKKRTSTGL
Protocol: as §1

SAPK2b(h) = target: T7, SAPK2b(h) (Homo sapiens, UniProt Q15759)
T7 construct: purchased Millipore (KinaseProfiler service)
T7 sequence (Q15759 whole entry): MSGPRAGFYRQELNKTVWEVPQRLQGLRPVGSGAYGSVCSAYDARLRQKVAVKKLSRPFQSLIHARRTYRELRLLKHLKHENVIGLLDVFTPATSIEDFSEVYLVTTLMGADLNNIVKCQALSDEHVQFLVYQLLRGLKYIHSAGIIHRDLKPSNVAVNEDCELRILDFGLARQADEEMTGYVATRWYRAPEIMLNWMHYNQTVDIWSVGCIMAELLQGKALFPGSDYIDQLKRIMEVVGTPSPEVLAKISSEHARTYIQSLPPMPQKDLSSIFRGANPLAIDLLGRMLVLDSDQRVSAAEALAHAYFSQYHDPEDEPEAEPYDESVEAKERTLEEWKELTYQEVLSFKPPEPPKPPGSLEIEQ
Protocol: as §1

SAPK4(h) = target: T8, SAPK4(h) (Homo sapiens, UniProt O15264)
T8 construct: purchased Millipore (KinaseProfiler service)
Protocol: as §1

TSSK2(h) = target: T9, TSSK2(h) (Homo sapiens, UniProt Q96PF2)
T9 construct: purchased Millipore (KinaseProfiler service)
T9 sequence (Q96PF2 whole entry): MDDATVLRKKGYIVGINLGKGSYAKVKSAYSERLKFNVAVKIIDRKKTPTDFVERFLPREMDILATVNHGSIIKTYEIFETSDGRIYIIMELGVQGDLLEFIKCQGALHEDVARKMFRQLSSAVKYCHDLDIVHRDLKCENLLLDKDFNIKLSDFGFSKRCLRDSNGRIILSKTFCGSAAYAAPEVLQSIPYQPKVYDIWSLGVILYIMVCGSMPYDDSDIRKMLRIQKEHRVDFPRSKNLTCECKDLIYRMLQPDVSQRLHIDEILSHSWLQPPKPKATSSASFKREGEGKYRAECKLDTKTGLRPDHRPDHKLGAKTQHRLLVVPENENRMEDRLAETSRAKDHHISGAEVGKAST
Protocol: as §1

VRK2(h) = VRK2(h) (Homo sapiens, UniProt Q86Y07)
Protocol: as §1

WNK2(h) = WNK2(h) (Homo sapiens, UniProt Q9Y3S1)
Protocol: as §1

cKit(D816V)(h) = cKit(D816V)(h) (Homo sapiens, UniProt P10721, D816V)
Protocol: as §1

cKit(V654A)(h) = cKit(V654A)(h) (Homo sapiens, UniProt P10721, V654A)
Protocol: as §1

cKit(h) = cKit(h) (Homo sapiens, UniProt P10721)
Protocol: as §1

eEF-2K(h) = target: T10, eEF-2K(h) (Homo sapiens, UniProt O00418)
T10 construct: purchased Millipore (KinaseProfiler service)
Protocol: as §1

Activity % (Ab1(Q252H)(h)): −2% | Activity % (Arg(m)): −2% | Activity % (BrSK2(h)): 44% | Activity % (CDK7/cyclinH/MAT1(h)): 44% | Activity % (CaMKI(h)): 90% | Activity % (CaMKIIγ(h)): 87% | Activity % (CaMKIδ(h)): 87% | Activity % (DCAMKL2(h)): 87% | Activity % (DMPK(h)): 102% | Activity % (DRAK1(h)): 51% | Activity % (EGFR(h)): 108% | Activity % (EphA7(h)): 54% | Activity % (EphB3(h)): 99% | Activity % (FGFR2(N549H)(h)): −1% | Activity % (Fms(Y969C)(h)): 4% | Activity % (GSK3α(h)): 96% | Activity % (IGF-1R(h)): 5% | Activity % (IRAK1(h)): 96% | Activity % (MAPK2(h)): 105% | Activity % (MEK1(h)): 63% | Activity % (NEK11(h)): 102% | Activity % (P1k1(h)): 107% | Activity % (PAK6(h)): 85% | Activity % (PDGFRβ(h)): 89% | Activity % (PKC ? (h)): 99% | Activity % (PKCβ1(h)): 92% | Activity % (PKCθ(h)): 109% | Activity % (PKCι(h)): 105% | Activity % (Pim-1(h)): 114% | Activity % (Rsk4(h)): 66% | Activity % (SAPK2b(h)): 103% | Activity % (SAPK4(h)): 91% | Activity % (TSSK2(h)): 84% | Activity % (VRK2(h)): 99% | Activity % (WNK2(h)): 99% | Activity % (cKit(D816V)(h)): 63% | Activity % (cKit(V654A)(h)): 32% | Activity % (cKit(h)): 84% | Activity % (eEF-2K(h)): 86%
Structure (SMILES): Cc1cc2c(F)c(Oc3nc(Nc4cc(C5CC5)[nH]n4)cc(N4CCN(C)CC4)n3)cc(F)c2[nH]1 [NTW-3475]

Source: US9458137B2, “Substituted indol-5-ol derivatives and their therapeutical applications” (NantBioScience, Inc., priority 2012, dated 2016)
